In patent EP2970215B1, “PYRROLIDINE DERIVATIVES, PHARMACEUTICAL COMPOSITIONS CONTAINING THEM, AND THEIR USE IN THERAPY” (AbbVie Deutschland GmbH & Co. KG, priority 2013, dated 2014):

molecular target: T1, human GlyT1c transporter (Homo sapiens, UniProt P48067); assay: Radioligand binding assay using recombinant CHO cell membranes expressing human GlyT1; details: radioligand binding to human GlyT1c transporter-expressing membranes
T1 construct: expressed in transfected cells; host or cells: CHO cells (recombinant; line hGlyT1c_5_CHO is named for the uptake assay)
T1 sequence (P48067 1-706): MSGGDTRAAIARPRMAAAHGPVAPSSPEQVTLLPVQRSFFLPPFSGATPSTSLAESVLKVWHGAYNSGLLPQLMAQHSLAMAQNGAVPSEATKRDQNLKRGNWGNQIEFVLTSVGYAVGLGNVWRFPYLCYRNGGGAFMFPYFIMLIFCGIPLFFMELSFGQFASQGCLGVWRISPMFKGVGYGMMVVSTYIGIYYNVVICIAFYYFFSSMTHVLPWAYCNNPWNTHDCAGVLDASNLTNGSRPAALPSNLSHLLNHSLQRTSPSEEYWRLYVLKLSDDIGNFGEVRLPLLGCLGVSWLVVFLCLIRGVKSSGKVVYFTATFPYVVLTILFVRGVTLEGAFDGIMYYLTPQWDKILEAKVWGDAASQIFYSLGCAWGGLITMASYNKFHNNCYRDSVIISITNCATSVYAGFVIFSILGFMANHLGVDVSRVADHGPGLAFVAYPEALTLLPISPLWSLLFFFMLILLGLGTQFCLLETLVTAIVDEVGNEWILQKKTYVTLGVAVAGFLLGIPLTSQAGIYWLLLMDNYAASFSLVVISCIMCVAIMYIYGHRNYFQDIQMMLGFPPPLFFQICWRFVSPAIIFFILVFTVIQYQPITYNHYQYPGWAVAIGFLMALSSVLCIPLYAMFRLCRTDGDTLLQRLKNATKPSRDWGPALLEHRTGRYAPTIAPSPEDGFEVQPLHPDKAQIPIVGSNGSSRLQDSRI
From the text: 2. Radioligand binding assays using recombinant CHO cell membranes expressing human GlyT1: […]

SMILES	Ki [nM]
COc1ccc(N[C@H]2CN(S(=O)(=O)c3cn(C)cn3)C[C@@H]2c2ccccc2)cc1C(F)(F)F [Example 653, (3R,4S)-N-[4-methoxy-3-(trifluoromethyl)phenyl]-1-[(1-methyl-1H-imidazol-4-yl)sulfonyl]-4-phenylpyrrolidin-3-amine]	≤ 10000
Cn1cnc(S(=O)(=O)N2C[C@H](Nc3ccc4sccc4c3)[C@@H](c3ccccc3)C2)c1 [Example 654, (3R,4S)-N-(1-benzothiophen-5-yl)-1-[(1-methyl-1H-imidazol-4-yl)sulfonyl]-4-phenylpyrrolidin-3-amine]	≤ 1000
Cn1cnc(S(=O)(=O)N2C[C@H](Nc3ccc4c(c3)CCC4)[C@@H](c3ccccc3)C2)c1 [Example 655, (3R,4S)-N-(2,3-dihydro-1H-inden-5-yl)-1-[(1-methyl-1H-imidazol-4-yl)sulfonyl]-4-phenylpyrrolidin-3-amine]	≤ 1000
Cn1cnc(S(=O)(=O)N2C[C@H](Nc3ccc(C(F)(F)F)c(C(F)(F)F)c3)[C@@H](c3ccccc3)C2)c1 [Example 656, (3R,4S)-N-[3,4-bis(trifluoromethyl)phenyl]-1-[(1-methyl-1H-imidazol-4-yl)sulfonyl]-4-phenylpyrrolidin-3-amine]	≤ 1000
Cn1cnc(S(=O)(=O)N2C[C@H](Nc3ccc4c(c3)CCCC4)[C@@H](c3ccccc3)C2)c1 [Example 657, (3R,4S)-1-[(1-methyl-1H-imidazol-4-yl)sulfonyl]-4-phenyl-N-(5,6,7,8-tetrahydronaphthalen-2-yl)pyrrolidin-3-amine]	≤ 1000
Cn1cnc(S(=O)(=O)N2C[C@H](Nc3ccc4c(c3)CCCO4)[C@@H](c3ccccc3)C2)c1 [Example 658, (3R,4S)-N-(3,4-dihydro-2H-chromen-6-yl)-1-[(1-methyl-1H-imidazol-4-yl)sulfonyl]-4-phenylpyrrolidin-3-amine]	≤ 1000
Cn1cnc(S(=O)(=O)N2C[C@H](Nc3ccc4occc4c3)[C@@H](c3ccccc3)C2)c1 [Example 660, (3R,4S)-N-(1-benzofuran-5-yl)-1-[(1-methyl-1H-imidazol-4-yl)sulfonyl]-4-phenylpyrrolidin-3-amine]	≤ 1000
COC(=O)CCCC(=O)N[C@H]1CN(S(=O)(=O)c2cn(C)cn2)C[C@@H]1c1ccc(F)cc1 [Example 662, methyl 5-({(3R,4S)-4-(4-fluorophenyl)-1-[(1-methyl-1H-imidazol-4-yl)sulfonyl]pyrrolidin-3-yl}amino)-5-oxopentanoate]	≤ 10000
Cn1cnc(S(=O)(=O)N2C[C@H](C(=O)NCc3ccc(C(F)(F)F)cc3Cl)[C@@H](c3ccc(F)cc3)C2)c1 [Example 663, (3R,4S)-N-[2-chloro-4-(trifluoromethyl)benzyl]-4-(4-fluorophenyl)-1-[(1-methyl-1H-imidazol-4-yl)sulfonyl]pyrrolidine-3-carboxamide]	≤ 100
CCCCCN[C@H]1CN(S(=O)(=O)c2cn(C)cn2)C[C@@H]1c1ccc(F)cc1 [Example 664, (3R,4S)-4-(4-fluorophenyl)-1-[(1-methyl-1H-imidazol-4-yl)sulfonyl]-N-pentylpyrrolidin-3-amine]	≤ 100
COCCOCCN[C@H]1CN(S(=O)(=O)c2cn(C)cn2)C[C@@H]1c1ccccc1 [Example 666, (3R,4S)-N-[2-(2-methoxyethoxy)ethyl]-1-[(1-methyl-1H-imidazol-4-yl)sulfonyl]-4-phenylpyrrolidin-3-amine]	≤ 10000
Cn1cnc(S(=O)(=O)N2C[C@H](NCCOc3ccc(F)cc3)[C@@H](c3ccc(F)cc3)C2)c1 [Example 667, (3R,4S)-N-[2-(4-fluorophenoxy)ethyl]-4-(4-fluorophenyl)-1-[(1-methyl-1H-imidazol-4-yl)sulfonyl]pyrrolidin-3-amine]	≤ 100
Cc1cc(N[C@H]2CN(S(=O)(=O)c3cn(C)cn3)C[C@@H]2c2ccccc2)ccc1Cl [Example 669, (3R,4S)-N-(4-chloro-3-methylphenyl)-1-[(1-methyl-1H-imidazol-4-yl)sulfonyl]-4-phenylpyrrolidin-3-amine]	≤ 100
Cn1cnc(S(=O)(=O)N2C[C@H](Nc3cccc(OCC(F)(F)F)c3)[C@@H](c3ccccc3)C2)c1 [Example 670, (3R,4S)-1-[(1-methyl-1H-imidazol-4-yl)sulfonyl]-4-phenyl-N-[3-(2,2,2-trifluoroethoxy)phenyl]pyrrolidin-3-amine]	≤ 10
Cn1cnc(S(=O)(=O)N2C[C@H](Nc3ccc4c(c3)CCO4)[C@@H](c3ccccc3)C2)c1 [Example 671, (3R,4S)-N-(2,3-dihydro-1-benzofuran-5-yl)-1-[(1-methyl-1H-imidazol-4-yl)sulfonyl]-4-phenylpyrrolidin-3-amine]	≤ 1000
Cn1cnc(S(=O)(=O)N2C[C@H](Nc3ccc4c(c3)C(C)(C)CCO4)[C@@H](c3ccc(F)cc3)C2)c1 [Example 672, (3R,4S)-N-(4,4-dimethyl-3,4-dihydro-2H-chromen-6-yl)-4-(4-fluorophenyl)-1-[(1-methyl-1H-imidazol-4-yl)sulfonyl]pyrrolidin-3-amine]	≤ 1000
CCCCC(O)C(=O)N[C@H]1CN(S(=O)(=O)c2cn(C)cn2)C[C@@H]1c1ccc(F)cc1 (stereo partly drawn) [Example 673, N-{(3R,4S)-4-(4-fluorophenyl)-1-[(1-methyl-1H-imidazol-4-yl)sulfonyl]pyrrolidin-3-yl}-2-hydroxyhexanamide]	≤ 1000
CCCC(CCN[C@H]1CN(S(=O)(=O)c2cn(C)cn2)C[C@@H]1c1ccccc1)OC (stereo partly drawn) [Example 674, (3R,4S)-N-(3-methoxyhexyl)-1-[(1-methyl-1H-imidazol-4-yl)sulfonyl]-4-phenylpyrrolidin-3-amine]	≤ 1000
CC(C)c1cc(N[C@H]2CN(S(=O)(=O)c3cn(C)cn3)C[C@@H]2c2ccc(F)cc2)ccc1Cl [Example 675, (3R,4S)-N-[4-chloro-3-(propan-2-yl)phenyl]-4-(4-fluorophenyl)-1-[(1-methyl-1H-imidazol-4-yl)sulfonyl]pyrrolidin-3-amine]	≤ 1000
Cc1cc(N[C@H]2CN(S(=O)(=O)c3cn(C)cn3)C[C@@H]2c2ccc(F)cc2)ccc1C(F)(F)F [Example 676, (3R,4S)-4-(4-fluorophenyl)-1-[(1-methyl-1H-imidazol-4-yl)sulfonyl]-N-[3-methyl-4-(trifluoromethyl)phenyl]pyrrolidin-3-amine]	≤ 1000
Cn1cnc(S(=O)(=O)N2C[C@H](Nc3ccc4ccsc4c3)[C@@H](c3ccc(F)cc3)C2)c1 [Example 677, (3R,4S)-N-(1-benzothiophen-6-yl)-4-(4-fluorophenyl)-1-[(1-methyl-1H-imidazol-4-yl)sulfonyl]pyrrolidin-3-amine]	≤ 1000
Cn1cnc(S(=O)(=O)N2CC(Nc3cccc(OC(F)(F)F)c3)C(C3CCN(C4CC4)CC3)C2)c1 (stereo not drawn) [Example 678, -4-(1-cyclopropylpiperidin-4-yl)-1-[(1-methyl-1H-imidazol-4-yl)sulfonyl]-N-[3-(trifluoromethoxy)phenyl]pyrrolidin-3-amine]	≤ 1000
CCCCCCN[C@H]1CN(S(=O)(=O)c2cn(C)cn2)C[C@@H]1C1CCCCO1 (stereo partly drawn) [Example 679, (3R,4S)-N-hexyl-1-[(1-methyl-1H-imidazol-4-yl)sulfonyl]-4-(tetrahydro-2H-pyran-2-yl)pyrrolidin-3-amine]	≤ 1000
Cn1cnc(S(=O)(=O)N2C[C@H](NCCCCC3OCCC(C)(C)O3)[C@@H](c3ccc(F)cc3)C2)c1 (stereo partly drawn) [Example 684, (3R,4S)-N-[4-(4,4-dimethyl-1,3-dioxan-2-yl)butyl]-4-(4-fluorophenyl)-1-[(1-methyl-1H-imidazol-4-yl)sulfonyl]pyrrolidin-3-amine]	≤ 1000
